{
  "source": "paper PMC5338256",
  "about": "“D-form KLKLLLLLKLK-NH2 peptide exerts higher antimicrobial properties than its L-form counterpart via an association with bacterial cell wall components” (Scientific Reports, 2017)",
  "key": {"S. aureus [1]": {"test_system": "S. aureus", "format": "cell-based, Staphylococcus aureus (NBRC100910)", "experimental": "(§1) S. aureus (NBRC100910), E. coli W3110 (NBRC12713), E. hirae (NBRC3181), C. albicans (NBRC1385), and S. Typhimurium 14028s (ATCC14028)[2] were used in this study. S. aureus, E. coli, and S. Typhimurium were grown at 37 °C with aeration in Muller-Hinton II medium (BD Biosciences). E. hirae was grown at 37 °C in LB medium (Nacalai Tesque, Inc.) containing 0.5% glucose (w/v). C. albicans was grown at room temperature with aeration in YM medium (BD Biosciences). All experiments were conducted using bacterial cells and C. albicans in the logarithmic-phase of growth.\nBacterial suspensions in Muller-Hinton II medium were adjusted to an optical density of 550 nm (OD550) = 0.0011. C. albicans suspensions in YM medium were adjusted to OD650 = 0.033. Peptides were serially diluted in 10 mM phosphate buffer (pH 6.0) containing 130 mM sodium chloride, 0.2% bovine serum albumin, and 2.56% dimethyl sulfoxide. The peptide solution (100 μl) was mixed with 100 μl of bacteria or C. albicans suspensions. Bacterial cultures were incubated for one day at 37 °C. C. albicans cultures were incubated for two days at room temperature. Cell growth was monitored optically and the MIC was determined."}, "E. hirae": {"test_system": "E. hirae", "assay": "Assay for antimicrobial activity (10 min exposure, CFU)", "format": "cell-based, Enterococcus hirae (NBRC3181)", "settings": "10 min at 37 °C, triplicate plates", "experimental": "as §1\n(§2) Bacteria and C. albicans were suspended in growth medium. Peptides suspended in dimethyl sulfoxide were serially diluted in 10 mM phosphate buffer (pH 6.0) containing 130 mM sodium chloride, 0.2% bovine serum albumin as described previously. In order to examine the effects of bovine serum albumin on the assay, 10 mM phosphate buffer (pH 6.0) containing 130 mM sodium chloride, was used for the dilution of peptides. […] The inhibitory effects of the bacterial components were analyzed by incubating 450 μl of S. aureus suspension with 500 μl of peptide solution plus 50 μl of inhibitor samples at 37 °C for 10 min. […] After cultivation of the plates, colony forming units (CFU) in the peptide/bacteria suspension were calculated based on the average of triplicate plates."}, "E. coli": {"test_system": "E. coli", "assay": "Assay for antimicrobial activity (10 min exposure, CFU)", "format": "cell-based, Escherichia coli W3110 (NBRC12713)", "settings": "10 min at 37 °C, triplicate plates", "experimental": "as §1, §2"}, "S. Typhimurium": {"test_system": "S. Typhimurium", "assay": "Assay for antimicrobial activity (10 min exposure, CFU)", "format": "cell-based, Salmonella enterica serovar Typhimurium 14028s", "settings": "10 min at 37 °C, triplicate plates", "experimental": "as §1, §2"}, "S. aureus [2]": {"test_system": "S. aureus", "assay": "Assay for membrane permeability (ethidium influx)", "format": "cell-based, Staphylococcus aureus", "settings": "20 μg/ml peptide, fluorescence for 180 sec, 10 mM phosphate buffer pH 6.0, 130 mM NaCl, 0.2% BSA", "experimental": "To examine membrane permeability, ethidium influx rates were examined as previously described. S. aureus suspension cultures were adjusted to an OD600 of 0.4 in 10 mM phosphate buffer (pH 6.0) containing 130 mM sodium chloride and 0.2% bovine serum albumin. Then, peptide in dimethyl sulfoxide (8 μl) or dimethyl sulfoxide alone (8 μl) was added to 2 ml of S. aureus suspensions. At 30 sec after the addition of peptide, ethidium bromide was added to a final concentration of 5 μg/ml, and fluorescence of the ethidium-nucleic acid complex was monitored using a RF-5300PC spectrofluorometer (Shimadzu). Excitation and emission wavelengths were 545 nm with 5 nm slits and 600 nm with 10 nm slits, respectively."}, "S. aureus [3]": {"test_system": "S. aureus", "assay": "Inhibition of antimicrobial activity by bacterial cell wall components", "format": "cell-based, Staphylococcus aureus", "settings": "D-form 1.9 μg/ml, L-form 7.5 μg/ml, 10 min", "experimental": "Bacteria and C. albicans were suspended in growth medium. Peptides suspended in dimethyl sulfoxide were serially diluted in 10 mM phosphate buffer (pH 6.0) containing 130 mM sodium chloride, 0.2% bovine serum albumin as described previously. In order to examine the effects of bovine serum albumin on the assay, 10 mM phosphate buffer (pH 6.0) containing 130 mM sodium chloride, was used for the dilution of peptides. Peptide solution (500 μl) was added to 500 μl of bacteria suspensions and then the mixture was incubated at 37 °C for 10 min. In order to examine the effects of culture medium components on the assay, bacteria suspension was prepared with 10 mM phosphate buffer (pH 6.0) containing 130 mM sodium chloride. Alternatively, 500 μl of peptide solution was added to 500 μl of C. albicans suspensions and the mixture was incubated at room temperature for 10 min. The inhibitory effects of the bacterial components were analyzed by incubating 450 μl of S. aureus suspension with 500 μl of peptide solution plus 50 μl of inhibitor samples at 37 °C for 10 min. Then, the peptide/bacteria suspensions were diluted and plated onto LB agar, LB agar containing 0.5% glucose, or YM agar. After cultivation of the plates, colony forming units (CFU) in the peptide/bacteria suspension were calculated based on the average of triplicate plates.\nPeptidoglycan (120 μg) prepared from S. aureus was added to 1 mg/ml of lysozyme in phosphate buffered saline (150 μl)[33]. Peptidoglycan without lysozyme and lysozyme without peptidoglycan were also prepared as controls. Samples were incubated overnight at 37 °C, and then incubated at 100 °C for 15 min to inactivate lysozyme. For heat-inactivation of peptidoglycan, 600 μg of peptidoglycan suspended in water (300 μl) was incubated at 100 °C for 15 min. The samples were sonicated for 10 sec at setting 1 using a Branson sonifier model S-150D. These samples were used as inhibitor samples for antimicrobial activity assays."}, "S. aureus peptidoglycan": {"test_system": "S. aureus peptidoglycan", "assay": "Peptidoglycan-binding assay", "design": "species or system Staphylococcus aureus", "settings": "biotin-labeled peptides on immobilized peptidoglycan; 37 °C, 2 h; avidin-labeled peroxidase, absorbance 450 nm; triplicate assays", "experimental": "Peptidoglycan-binding assays were performed as previously described with some modifications. Peptidoglycan from S. aureus (100 μg/ml) was suspended in 0.2% trifluoroacetic acid and sonicated twice for 10 sec at setting 1 using a Branson sonifier model S-150D. The peptidoglycan suspension (50 μl) was used to coat the wells of a flat bottom 96-well microplate (Thermo Fisher Scientific). The plate was incubated at room temperature until the water evaporated. The plate was placed at 60 °C for 1 h to dry out completely, and then blocked with 200 μl of 5 mg/ml bovine serum albumin in binding buffer (10 mM phosphate buffer (pH 6.0) containing 130 mM sodium chloride, 0.05% Tween 20, and 0.01% trifluoroacetic acid) at 37 °C for 2 h. The plate was washed four times with 200 μl of binding buffer. Biotin-labeled peptides in 100 μl of binding buffer containing 0.5% dimethyl sulfoxide were added to the wells and incubated at 37 °C for 2 h. Detection of biotin-labeled peptides was performed using Vectastain ABC reagent (Vector Laboratories) according to manufacturer’s instructions. The wells were washed four times with binding buffer, then 100 μl of avidin-labeled peroxidase was added to each well, and the plate was incubated at 37 °C for 1 h. The wells were washed again as described above. […] Absorbance was measured at 450 nm."}, "Staphylococcus aureus": {"test_system": "Staphylococcus aureus", "settings": "cited from earlier work", "text": "We determined minimum inhibitory concentrations (MICs) of other ant ..."}, "[4]": {"settings": "cited from earlier work"}},
  "note": "Non-standard residues stand in square brackets, D forms with d. Residues, ends and D or L forms follow the SMILES beside them.",
  "data": [
    {"smiles": "CC(C)C[C@@H](NC(=O)[C@H](N)CCCCN)C(=O)N[C@H](CCCCN)C(=O)N[C@H](CC(C)C)C(=O)N[C@H](CC(C)C)C(=O)N[C@H](CC(C)C)C(=O)N[C@H](CC(C)C)C(=O)N[C@H](CC(C)C)C(=O)N[C@H](CCCCN)C(=O)N[C@H](CC(C)C)C(=O)N[C@H](CCCCN)C(N)=O", "note": "[D-form KLKLLLLLKLK-NH2] (H-[dK][dL][dK][dL][dL][dL][dL][dL][dK][dL][dK]-NH2; N-terminus assumed)", "values": [
      {"measurement": "fold by which the MIC of the D-form is lower than that of the L-form", "setting": "S. aureus [1]; S. aureus", "result": 16, "unit": "fold"},
      {"measurement": "MIC", "setting": "S. aureus [1]; pH 6", "result": 1, "unit": "µg/mL"},
      {"measurement": "antimicrobial activity (CFU), D-form compared with L-form", "setting": "E. hirae", "result": "higher antimicrobial activity"},
      {"measurement": "antimicrobial activity (CFU), D-form compared with L-form", "setting": "E. coli", "result": "higher antimicrobial activity"},
      {"measurement": "antimicrobial activity (CFU), D-form compared with L-form", "setting": "S. Typhimurium", "result": "higher antimicrobial activity"},
      {"measurement": "ethidium bromide influx rate", "setting": "S. aureus [2]", "result": "higher"},
      {"measurement": "inhibition of the antimicrobial effect by S. aureus peptidoglycan", "setting": "S. aureus [3]; 40 μg/ml S. aureus peptidoglycan", "result": "almost inhibited"},
      {"measurement": "inhibition of the antimicrobial activity by lipopolysaccharide from E. coli", "setting": "S. aureus [3]", "result": "preferentially inhibited"},
      {"measurement": "inhibition of the antimicrobial activity by peptidoglycan from E. coli", "setting": "S. aureus [3]", "result": "weak inhibitory effect"},
      {"measurement": "inhibition of the antimicrobial activity by synthetic E. coli lipid A", "setting": "S. aureus [3]", "result": "preferentially inhibited"},
      {"measurement": "inhibition of the antimicrobial effect by lipoteichoic acid from S. aureus", "setting": "S. aureus [3]", "result": "inhibited the antimicrobial effect of both D-form and L-form peptides similarly"},
      {"measurement": "affinity for S. aureus peptidoglycan, D-form compared with L-form", "setting": "S. aureus peptidoglycan", "result": "higher affinity"},
      {"measurement": "antimicrobial activity, D-form compared with L-form", "setting": "Staphylococcus aureus", "result": "higher antimicrobial activity"},
      {"measurement": "persistence in bacterial culture medium, D-form compared with L-form", "setting": "[4]", "result": "persist longer"}
    ]}
  ]
}
